Assay results: patent US20230181535A1, “UBIQUITIN-LIGASE INHIBITORS FOR THE TREATMENT OF CANCER” (FUNDACIÓN PROFESOR NOVOA SANTOS, priority 2020, published 2023)
Entries after “also recorded” stand apart in the source; their conditions may differ.

What was measured:
[1] = test system: bladder cancer 5637 cells; assay: BrdU proliferation assay, 5637; type: cell-based, human; conditions: 48 h
Experimental: (§1) For BrdU assays, 1×10^4 of indicated cells were plated per well into a 96-well plate. After 24 h, cells were treated with the indicated inhibitors for 48 h. Three independent experiments were plated with six replicates per each condition. Cells were treated with […] BrdU for 2 h. BrdU incorporation into newly synthesized DNA was measured using a cell proliferation colorimetric immunoassay kit according to the manufacturer's instructions (Roche, Switzerland). Results are expressed as mean±S.D. Results are represented as percentage of positive cells (mean±S.D) of three independent experiments.

[2] = test system: liver cancer HepG2 cells; assay: BrdU proliferation assay, HepG2; type: cell-based, human; conditions: 48 h
Experimental: as §1

[3] = test system: Hakai-MDCK xenograft tumours; assay: Tumour xenograft model (Hakai-MDCK cells in nude mice); type: in vivo
Experimental: Xenografts experiments were performed in Experimental Surgery Unit—Technological Training Center from INIBIC in compliance with the European Community Law (86/609/EEC) and the Spanish law (R.D. 53/2013). The experiment was approved by the Ethics Committee for Animal Experimentation of Xerencia de Xestion Integrada da Coruna (XXIAC). Mice were in a 12/12 hours light/dark cycle with water and food available ad libitum. Six weeks old athymic nu/nu mice were randomly distributed in groups. One million of MDCK cells, resuspended in DMEM without serum and antibiotic, were subcutaneously inoculated in both flanks in two groups of 3 animals. The same number of Hakai-MDCK cells were injected in two groups of 4 animals. […] Then, half of the animals were treated with Hakin-1 (5 mg/kg) and the other half with the same concentration of DMSO every 3 days. Tumour outgrowth was monitored twice a week taking measurements of tumour length (L) and width (W) with an electronic calipter. Tumour volume was calculated as pLW2/6. Forty days after inoculation, animals were sacrificed. Tumours, lungs, kidneys and livers were collected and fixed in 4% PFA and embedded in paraffin blocks for histology and/or immunohistochemistry (IHC) analyses.
Tumours and tissues were deparaffinised, rehydrated and stained with haematoxylin and eosin (H&E) as previously described. Tumour sections (4 μm) were also deparaffinised and hydrated for immunohistochemistry. Antigen retrieval was carried by heating the samples (2100 Retriever; PickCell Laboratories) in citrate buffer (Dako REAL, Denmark) or in EDTA buffer. Then, endogenous peroxidase activity was blocked with peroxidase blocking (DakoCytomation, Denmark). Samples were blocked and permeabilized with 0.2% BSA and 0.1% Tx-100 for 1 hour and incubated with the indicated primary antibodies overnight at 4° C. in a wet chamber. Slides were incubated for 1 hour at room temperature with the secondary antibody and detection was carried our using DAB (DakoReal Envision kit) according to manufacturer instructions. Finally, nuclei were counterstained with Gill's Hematoxylin and mounted with DePeX. Pictures were taken with an Olympus microscope. Quantification of images was performed taken 5 photographs of each animal with Image J programme and the represented results are shown as mean±SEM. The number of mitosis was counted in sections stained with H&E. In this case, ten pictures of each tumour were taken with an Olympus BX50 microscope (objective 40×) and the number of mitosis was counted manually. Results are represented as mean±SEM and a representative photograph is shown for each condition.
Real-time PCR was used to study the presence of metastasis in the lung mice. Primers for HA epitope and Hakai present in ectopic HA-tagged Hakai expressed in MDCK-Hakai cells (5′-[…]-3′; 5″-[…]-3′) were used for the quantification. Primers for mouse apolipoprotein B (apob) (5′-[…]-3′; 5′-[…]-3′) were used as endogenous control. MDCK cell line was used as negative control. Lung DNA was extracted from 10-15 sections of paraffin blocks (4 μm) using with QIAamp DNA Mini Kit (Qiagen). The amplification and quantification of DNA was carried by quantitative PCR in technical triplicates by using a LightCycler 480 real-time lightcycler (Roche). Relative DNA levels were calculated by 2^−ΔΔCt method.
Tissue sections from tumours were deparaffinised and rehydrated using standard protocols. The slides were rinsed twice with PBS and treated with citrate buffer buffer (Dako REAL, Denmark) in microwave at 350 W for 5 min. The tissue sections were then analysed with an in situ Cell Death Detection Kit, Fluorescein (Roche) following the manufacturer's instructions. Then, slides were incubated with Hoechst for 5 min in darkness. The reaction was visualized under an epifluorescence Olympus microscope using 20× objective.

[4] = test system: HT29 cells; assay: BrdU proliferation assay, HT29; type: cell-based, human; conditions: 48 h
Experimental: as §1

[5] = test system: LoVo cells; assay: BrdU proliferation assay, LoVo; type: cell-based; conditions: 48 h
Experimental: as §1

[6] = test system: non-cancerous HEK293T cells; assay: MTT cell viability assay, HEK293T; type: cell-based, human; conditions: concentrations tested in the previous assays
Experimental: For cytotoxicity assays, 1×10^4 cells were seeded per well into a 96-well plate. After 24 h cells were treated with the indicated inhibitors for 72 h and a MTT colorimetric cell viability assay was performed following manufacturer's instructions (Sigma Aldrich, St Louis, Mo.). Absorbance was measured at 570 and 630 nm using a Multiskan Plus Reader (Nanoquant Infinite M200 Tecan Trading AG, Switzerland). Dose-response curves were designed with Graph Pad Prism Software and the half-maximal inhibitory concentration (IC50) values were calculated. Represented data are the mean±SEM of at least three independent experiments with six replicates per condition.

[7] = Hakai-MDCK xenograft tumours, immunohistochemistry
[8] = Hakai-MDCK xenograft, nude mice, 5 mg/kg

SMILES	cell proliferation (BrdU) [1]	cell proliferation (BrdU) [2]	micrometastasis in lung (quantitative PCR of HA-tagged Hakai DNA) ([3]; Hakai-MDCK xenograft mice, vs DMSO treated mice)	Cortactin expression (immunohistochemistry) ([3]; Hakai-MDCK xenograft tumours)	apoptosis (TUNEL assay) ([3]; Hakai-MDCK xenograft tumours)	mitotic-index ([3]; Hakai-MDCK xenograft tumours, H&E)	number of Ki67-positive cells [3, 7]	number of blood vessels (CD31 angiogenic marker) [3, 7]	N-cadherin mesenchymal marker expression (immunohistochemistry) ([3]; Hakai-MDCK xenograft tumours, vs DMSO treated mice)	tumour cell morphology (H&E) [3, 8]	tumour-cell infiltration in blood vessels (H&E) [3, 8]	xenograft tumour growth ([3]; Hakai-MDCK xenograft, nude mice, 5 mg/kg every 3 days, vs DMSO, 5 mg/kg)	tissue damage / systemic toxicity (H&E of organs) ([3]; nude mice treated with 5 mg/kg, 5 mg/kg)	cell proliferation (BrdU) [4]	cell proliferation (BrdU) [5]	cytotoxic effect (cell viability, MTT) [6]
O=C(O)c1ccc(-n2nnnc2SCC(=O)c2ccc([N+](=O)[O-])cc2)cc1 [Hakin-1, 4-(5-[2-(4-nitrophenyl)-2-oxoethyl]thiol-1H-tetrazol-1-yl)benzoic acid]	inhibited cell proliferation	inhibited cell proliferation	significant reduction of micrometastasis	recovered	does not affect cell apoptosis; also recorded: no effect on apoptosis was detected	markedly reduce	markedly reduce	strong reduction on the number of blood vessels	strongly reduced	induction of tumour differentiation and an increase in cytoplasm size	no infiltration was detected	inhibits tumour growth; also recorded: potent effect on inhibiting xenograft tumour growth; also recorded: strong antitumor effect; also recorded: inhibited tumor growth	Intact cell morphology and tissue structure of liver and kidney; also recorded: no damage was observed in lung and kidney tissues; also recorded: apparently without systemic toxicity	reduced cell proliferation	reduced cell proliferation	–
O=C(O)c1ccc(-n2nnnc2SCC(O)c2ccc([N+](=O)[O-])cc2)cc1 (stereo not shown) [MKH1]	–	–	–	–	–	–	–	–	–	–	–	–	–	–	–	no cytotoxic effect
